Measured values as given in ChEMBL document CHEMBL4765469, “2-((3,5-Dinitrobenzyl)thio)quinazolinones: Potent Antimycobacterial Agents Activated by Deazaflavin (F)-Dependent Nitroreductase (Ddn)” (J Med Chem, 2021).
Values after ≈ are worked out from the molar mass of the structure shown. Active and inactive are the calls of the source. The calls are words filed in the database; no cut-off is given here.

How the values were obtained:
[1] = test system: Mycobacterium tuberculosis; test: Antitubercular activity against Mycobacterium tuberculosis T2 expressing nitroreductase rv3547 A76E mutant assessed as inhibition of all visible growth grown under 7H9/ glucose liquid culture incubated for 7 to 14 days; assay type: functional; conditions: time 7-14 day
[2] = test system: Mycobacterium tuberculosis; test: Antitubercular activity against Mycobacterium tuberculosis 5A1 with fbiC mutant deficient in cofactor F420 biosynthesis assessed as inhibition of all visible growth grown under 7H9/ glucose liquid culture incubated for 7 to 14 days; assay type: functional; conditions: time 7-14 day
[3] = test system: Mycobacterium tuberculosis; test: Antitubercular activity against Mycobacterium tuberculosis T3 with fgd mutant deficient in F420 reduction assessed as inhibition of all visible growth grown under 7H9/ glucose liquid culture incubated for 7 to 14 days; assay type: functional; conditions: time 7-14 day
[4] = test system: Mycobacterium tuberculosis; test: Antitubercular activity against Mycobacterium tuberculosis resistant mutants generated by plating on 7H11/0ADC agar plates in presence of 3.75 to 15 uM 2-((3,5-Dinitrobenzyl)thio)quinazolin-4(3H)-one followed by sensitivity testing; assay type: functional, organism-based
[5] = Ratio of MIC for antitubercular activity against Mycobacterium tuberculosis resistant mutants generated by plating on 7H11/0ADC agar plates in presence of 3.75 to 15 uM 2-((3,5-Dinitrobenzyl)thio)quinazolin-4(3H)-one to MIC for antitubercular activity against wild type Mycobacterium tuberculosis H37Rv ATCC 27294; assay type: functional

Structure (SMILES)	MIC>99 [1]	MIC>99 [2]	MIC>99 [3]	Activity [4]	Ratio [5]
Cc1ccc2nc(SCc3cc([N+](=O)[O-])cc([N+](=O)[O-])c3)[nH]c(=O)c2c1	>50 µM	>50 µM	>50 µM	–	–
CO[C@H]1/C=C/O[C@@]2(C)Oc3c(C)c(O)c4c(O)c(c(/C=N/N5CCN(C)CC5)c(O)c4c3C2=O)NC(=O)/C(C)=C\C=C\[C@H](C)[C@H](O)[C@@H](C)[C@@H](O)[C@@H](C)[C@H](OC(C)=O)[C@@H]1C	–	–	–	Active	–
CN1CCN(c2ccc3nc(SCc4cc([N+](=O)[O-])cc([N+](=O)[O-])c4)[nH]c(=O)c3c2)CC1	37 µM (≈ 16.9 µg/mL)	37 µM (≈ 16.9 µg/mL)	25 µM (≈ 11.4 µg/mL)	–	–
O=c1[nH]c(SCc2cc([N+](=O)[O-])cc([N+](=O)[O-])c2)nc2ccc(F)cc12	>=50 uM	>50 µM	>=50 uM	–	–
O=c1[nH]c(SCc2cc([N+](=O)[O-])cc([N+](=O)[O-])c2)nc2cccnc12	50 µM (≈ 18 µg/mL)	37 µM (≈ 13.3 µg/mL)	37 µM (≈ 13.3 µg/mL)	–	–
O=c1[nH]c(SCc2cc([N+](=O)[O-])cc([N+](=O)[O-])c2)nc2ccccc12	37 µM (≈ 13.3 µg/mL)	>50 µM	37 µM (≈ 13.3 µg/mL)	–	> 40
NNC(=O)c1ccncc1	–	–	–	Active	–
C[C@]1(COc2ccc(N3CCC(Oc4ccc(OC(F)(F)F)cc4)CC3)cc2)Cn2cc([N+](=O)[O-])nc2O1	–	–	–	inactive	–
O=c1[nH]c(SCc2cc([N+](=O)[O-])cc([N+](=O)[O-])c2)nc2ccc(Br)cc12	>50 µM	>50 µM	>50 µM	–	–
O=[N+]([O-])c1cn2c(n1)OC[C@@H](OCc1ccc(OC(F)(F)F)cc1)C2	–	–	–	inactive	–
O=c1[nH]c(SCc2cc([N+](=O)[O-])cc([N+](=O)[O-])c2)nc2ccc(N3CCOCC3)cc12	19 µM (≈ 8.43 µg/mL)	>=50 uM	>=50 uM	–	–
